Measured values: patent US12091402B2 (Avilar Therapeutics, Inc., priority 2021, dated 2024)
Like-named read-outs stand apart in the source and are kept apart here.

Tests used:
HepG2 cells = test: Cellular uptake assay of AF488-labeled antibody (HepG2); assay type: cell-based; conditions: HepG2 cells
How it was run: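 Ternary-complex uptake via ASGPR was imaged after fixation: the read-out is AF488-positive HepG2 cells divided by total DAPI nuclei. Degrader dilutions (IgG- or DNP-based, 0.1% DMSO final) were co-incubated 6 h at 37° C. with 100 nM of the corresponding fluorescent antibody.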

[1] = target: T1, ASGPR receptor on the cell surface (HepG2 cells) (Homo sapiens, UniProt P07306); test: Ternary complex formation assay (flow cytometry, HepG2); assay type: cell-based
T1 construct: host or cells: HepG2
T1 sequence (P07306 1-291): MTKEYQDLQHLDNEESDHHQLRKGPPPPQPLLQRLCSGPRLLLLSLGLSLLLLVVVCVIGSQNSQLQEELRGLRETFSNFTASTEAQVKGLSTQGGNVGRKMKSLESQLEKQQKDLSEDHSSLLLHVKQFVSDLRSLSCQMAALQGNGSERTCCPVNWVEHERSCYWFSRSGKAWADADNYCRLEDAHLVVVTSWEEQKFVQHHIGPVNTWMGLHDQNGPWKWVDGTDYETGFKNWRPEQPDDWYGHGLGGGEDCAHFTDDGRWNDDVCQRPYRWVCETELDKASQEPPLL
T1 sequence (P07307 1-311 partner): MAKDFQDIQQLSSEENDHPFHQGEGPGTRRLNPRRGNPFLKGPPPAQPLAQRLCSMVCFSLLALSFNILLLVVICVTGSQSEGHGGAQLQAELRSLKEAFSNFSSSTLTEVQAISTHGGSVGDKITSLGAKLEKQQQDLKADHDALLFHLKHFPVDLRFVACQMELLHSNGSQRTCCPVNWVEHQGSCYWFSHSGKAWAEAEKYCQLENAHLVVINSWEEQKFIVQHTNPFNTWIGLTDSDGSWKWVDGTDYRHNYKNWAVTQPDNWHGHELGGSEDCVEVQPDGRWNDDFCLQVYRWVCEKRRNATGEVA
How it was run: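 HepG2 cells (1×10^5/well) incubated 1 h at 4 °C with 100 nM AF488-labeled anti-human IgG plus serial IgG-based degrader, or 100 nM AF488 rabbit anti-DNP plus serial DNP-based degrader. After washing, cell-associated AF488 MFI read by flow cytometry; peak MFI marks optimal degrader concentration for ternary complex.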

IgG = test: Affinity to IgG by surface plasmon resonance (SPR); assay type: binding
Experimental: Immobilization levels ranging from 1000-1300 resonance units (RU) are obtained. The running buffer is 10 mM HEPES, pH 7.4, 400 mM NaCl, 0.005% P20, […].

ASGPR = target: T2, ASGPR (Homo sapiens, UniProt P07306); test: Affinity to ASGPR by surface plasmon resonance (SPR)
T2 sequence (P07306 1-291): T1 sequence (P07306 1-291)
Experimental: Biotinylated ASGPR (20 μg/ml) was immobilized on SA sensor chips (GE Healthcare) at flow rate of 5 μl/min for 90 sec reaching an immobilization level ranging from 500-3000 resonance units (RU). The running buffer was 50 mM HEPES, pH7.5, 150 mM NaCl, 50 mM CaCl2), 0.01% P20, 3% DMSO. The concentration of compounds vary from 2 mM to 5 nM depending on Kd values. The compounds are diluted 2 or 3-fold with 8 concentration points. Solutions containing serially diluted compounds are injected at a flow rate of 40 μL/min for 150-300 sec followed by a 90-300 sec dissociation phase for each concentration. The surface was regenerated using 50 mM HEPES, pH 7.5, 150 mM NaCl, 5 mM EDTA, 0.01% P20, 3% DMSO.
Data was processed using the analysis software in Biacore 8K to perform background subtraction, double referencing, and solvent correction. Values of affinity expressed as the dissociation constants (Kd) were determined by fitting the steady state binding responses (RUs) as a function of the concentration ([Compound]) using the following equation: RU=RUmax/(KD+[Compound]), where RU max is the calculated maximal response. Where appropriate double-referenced data were fit to using a 1:1 binding model for kinetic analysis.

[2] = 100 nM AF488-labeled antibody, 37° C. for 6 hours, class symbols, read-out: Uptake Assay EC50
[3] = HepG2 cells, ternary complex formation, read-out: TCF EC50
[4] = Biacore 8K, 25° C., IgG on CM5 chip, read-out: IgG SPR Binding Kd

Structure (SMILES)	EC50 (HepG2 cells; read-out: Uptake EC50) [nM]	Kd (IgG; SPR, read-out: IgG KD) [nM]	Kd (ASGPR) [nM]	EC50 [1, 3] [nM]	EC50 ([1]; HepG2 cells, 100 nM AF488-labeled antibody, 1 hour at 4° C., class symbols, read-out: Ternary Complex EC50) [nM]	Kd (ASGPR; read-out: ASGPR KD, SPR) [nM]	EC50 (HepG2 cells; [2]) [nM]	EC50 [1] [nM]	EC50 ([1]; read-out: Ternary Complex EC50) [nM]	Kd (IgG; [4]) [nM]
CC(C)C[C@@H]1NC(=O)[C@H](Cc2c[nH]cn2)NC(=O)[C@H](Cc2c[nH]c3ccccc23)NC(=O)[C@H](C)NC(=O)[C@@H]2CSSC[C@H](NC(=O)[C@H](Cc3c[nH]c4ccccc34)NC(=O)[C@H](C(C)C)NC(=O)[C@H](CC(C)C)NC(=O)[C@H](CCC(=O)O)NC(=O)CNC1=O)C(=O)N[C@@H]([C@@H](C)O)C(=O)N1CCC[C@@H]1C(=O)N1C[C@@H](NC(=O)CCOCCOCCOCCOCCNC(=O)CCCc3cn(CCCCCC(=O)NC(COCCC(=O)NCCOCCOCCOCCOC[C@H]4OC[C@H](Nc5cncc(C(F)(F)F)n5)[C@@H](O)[C@H]4O)COCCC(=O)NCCOCCOCCOCCOC[C@H]4OC[C@H](Nc5cncc(C(F)(F)F)n5)[C@@H](O)[C@H]4O)nn3)C[C@H]1C(=O)N[C@@H](CC(=O)O)C(=O)N2 [Compound 4]	< 100	< 100	< 100				< 100	< 100	< 100	
CC(C)C[C@@H]1NC(=O)[C@H](Cc2c[nH]cn2)NC(=O)[C@H](Cc2c[nH]c3ccccc23)NC(=O)[C@H](C)NC(=O)[C@@H]2CSSC[C@H](NC(=O)[C@H](Cc3c[nH]c4ccccc34)NC(=O)[C@H](C(C)C)NC(=O)[C@H](CC(C)C)NC(=O)[C@H](CCC(=O)N(C)C)NC(=O)CNC1=O)C(=O)N[C@@H]([C@@H](C)O)C(=O)N1CCC[C@@H]1C(=O)N1C[C@@H](NC(=O)CNC(COCCC(=O)NCCOCCOCCOCCOC[C@H]3OC[C@H](Nc4cncc(C(F)(F)F)n4)[C@@H](O)[C@H]3O)COCCC(=O)NCCOCCOCCOCCOC[C@H]3OC[C@H](Nc4cncc(C(F)(F)F)n4)[C@@H](O)[C@H]3O)C[C@H]1C(=O)N[C@@H](CC(=O)O)C(=O)N2 [Compound 75]	< 100	< 100	< 100					< 100		
CC(C)C[C@@H]1NC(=O)[C@H](Cc2c[nH]cn2)NC(=O)[C@H](Cc2c[nH]c3ccccc23)NC(=O)[C@H](C)NC(=O)[C@@H]2CSSC[C@H](NC(=O)[C@H](Cc3c[nH]c4ccccc34)NC(=O)[C@H](C(C)C)NC(=O)[C@H](CC(C)C)NC(=O)[C@H](CCC(=O)O)NC(=O)CNC1=O)C(=O)N[C@@H]([C@@H](C)O)C(=O)N1CCC[C@@H]1C(=O)N1C[C@@H](NC(=O)CCOCCNC(=O)CCCc3cn(CCCCCC(=O)NC(COCCC(=O)NCCOCCOCCOCCOC[C@H]4OC[C@H](Nc5nccc(C(F)(F)F)n5)[C@@H](O)[C@H]4O)COCCC(=O)NCCOCCOCCOCCOC[C@H]4OC[C@H](Nc5nccc(C(F)(F)F)n5)[C@@H](O)[C@H]4O)nn3)C[C@H]1C(=O)N[C@@H](CC(=O)O)C(=O)N2 [Compound 6]			< 100				< 100	< 100		< 100
CC(C)C[C@@H]1NC(=O)[C@H](Cc2cnc[nH]2)NC(=O)[C@H](Cc2c[nH]c3ccccc23)NC(=O)[C@H](C)NC(=O)[C@@H]2CSSC[C@H](NC(=O)[C@H](Cc3c[nH]c4ccccc34)NC(=O)[C@H](C(C)C)NC(=O)[C@H](CC(C)C)NC(=O)[C@H](CCC(=O)O)NC(=O)CNC1=O)C(=O)N[C@@H]([C@@H](C)O)C(=O)N1CCC[C@@H]1C(=O)N1C[C@@H](NC(=O)CCOCCNC(=O)CCCc3cn(C[C@@]45CO[C@@H](O4)[C@H](Nc4nc(Cl)ns4)[C@@H](O)[C@H]5O)nn3)C[C@H]1C(=O)N[C@@H](CC(=O)O)C(=O)N2 [Compound 7]			< 100				100 to 500	< 100		< 100

Second part, led by results:

EC50 (HepG2 cells; read-out: Uptake EC50) [nM]	Kd (IgG; SPR, read-out: IgG KD) [nM]	Kd (ASGPR) [nM]	EC50 [1, 3] [nM]	EC50 ([1]; HepG2 cells, 100 nM AF488-labeled antibody, 1 hour at 4° C., class symbols, read-out: Ternary Complex EC50) [nM]	Kd (ASGPR; read-out: ASGPR KD, SPR) [nM]	Structure (SMILES)	EC50 (HepG2 cells; [2]) [nM]	EC50 [1] [nM]	EC50 ([1]; read-out: Ternary Complex EC50) [nM]	Kd (IgG; [4]) [nM]
< 100	< 100	< 100	< 100			CC(C)C[C@@H]1NC(=O)[C@H](Cc2cnc[nH]2)NC(=O)[C@H](Cc2c[nH]c3ccccc23)NC(=O)[C@H](C)NC(=O)[C@@H]2CSSC[C@H](NC(=O)[C@H](Cc3c[nH]c4ccccc34)NC(=O)[C@H](C(C)C)NC(=O)[C@H](CC(C)C)NC(=O)[C@H](CCC(=O)O)NC(=O)CNC1=O)C(=O)N[C@@H]([C@@H](C)O)C(=O)N1CCC[C@@H]1C(=O)N1C[C@@H](NC(=O)CC(=O)NC[C@H]3OC[C@H](Nc4cncc(C(F)(F)F)n4)[C@@H](O)[C@H]3O)C[C@H]1C(=O)N[C@@H](CC(=O)O)C(=O)N2 [Compound 62]				
< 100	< 100	< 100	< 100	< 100	< 100	CC(C)C[C@@H]1NC(=O)[C@H](Cc2cnc[nH]2)NC(=O)[C@H](Cc2c[nH]c3ccccc23)NC(=O)[C@H](C)NC(=O)[C@@H]2CSSC[C@H](NC(=O)[C@H](Cc3c[nH]c4ccccc34)NC(=O)[C@H](C(C)C)NC(=O)[C@H](CC(C)C)NC(=O)[C@H](CCC(=O)O)NC(=O)CNC1=O)C(=O)N[C@@H]([C@@H](C)O)C(=O)N1CCC[C@@H]1C(=O)N1C[C@@H](NC(=O)CCCc3cn(C[C@H]4OC[C@H](Nc5cncc(C(F)(F)F)n5)[C@@H](O)[C@H]4O)nn3)C[C@H]1C(=O)N[C@@H](CC(=O)O)C(=O)N2 [Compound 51]	< 100			
> 1000	< 100	100 to 500	> 1000			CC(C)C[C@@H]1NC(=O)[C@H](Cc2cnc[nH]2)NC(=O)[C@H](Cc2c[nH]c3ccccc23)NC(=O)[C@H](C)NC(=O)[C@@H]2CSSC[C@H](NC(=O)[C@H](Cc3c[nH]c4ccccc34)NC(=O)[C@H](C(C)C)NC(=O)[C@H](CC(C)C)NC(=O)[C@H](CCC(=O)O)NC(=O)CNC1=O)C(=O)N[C@@H]([C@@H](C)O)C(=O)N1CCC[C@@H]1C(=O)N1C[C@@H](NC(=O)C3CCC(C(=O)NC[C@H]4OC[C@H](Nc5cncc(C(F)(F)F)n5)[C@@H](O)[C@H]4O)CC3)C[C@H]1C(=O)N[C@@H](CC(=O)O)C(=O)N2 (stereo partly drawn) [Compound 69]				
< 100	< 100	< 100	< 100			CC(C)C[C@@H]1NC(=O)[C@H](Cc2cnc[nH]2)NC(=O)[C@H](Cc2c[nH]c3ccccc23)NC(=O)[C@H](C)NC(=O)[C@@H]2CSSC[C@H](NC(=O)[C@H](Cc3c[nH]c4ccccc34)NC(=O)[C@H](C(C)C)NC(=O)[C@H](CC(C)C)NC(=O)[C@H](CCC(=O)O)NC(=O)CNC1=O)C(=O)N[C@@H]([C@@H](C)O)C(=O)N1CCC[C@@H]1C(=O)N1C[C@@H](NC(=O)CNC(COCCC(=O)NC[C@H]3OC[C@H](Nc4cncc(C(F)(F)F)n4)[C@@H](O)[C@H]3O)COCCC(=O)NC[C@H]3OC[C@H](Nc4cncc(C(F)(F)F)n4)[C@@H](O)[C@H]3O)C[C@H]1C(=O)N[C@@H](CC(=O)O)C(=O)N2 [Compound 65]				
100 to 500	< 100	< 100	< 100			CC(C)C[C@@H]1NC(=O)[C@H](Cc2cnc[nH]2)NC(=O)[C@H](Cc2c[nH]c3ccccc23)NC(=O)[C@H](C)NC(=O)[C@@H]2CSSC[C@H](NC(=O)[C@H](Cc3c[nH]c4ccccc34)NC(=O)[C@H](C(C)C)NC(=O)[C@H](CC(C)C)NC(=O)[C@H](CCC(=O)O)NC(=O)CNC1=O)C(=O)N[C@@H]([C@@H](C)O)C(=O)N1CCC[C@@H]1C(=O)N1C[C@@H](NC(=O)c3ccc4c(c3)C(=O)c3cc(C(=O)NC[C@H]5OC[C@H](Nc6cncc(C(F)(F)F)n6)[C@@H](O)[C@H]5O)ccc3-4)C[C@H]1C(=O)N[C@@H](CC(=O)O)C(=O)N2 [Compound 64]				
< 100	< 100	100 to 500	< 100			CC(C)C[C@@H]1NC(=O)[C@H](Cc2cnc[nH]2)NC(=O)[C@H](Cc2c[nH]c3ccccc23)NC(=O)[C@H](C)NC(=O)[C@@H]2CSSC[C@H](NC(=O)[C@H](Cc3c[nH]c4ccccc34)NC(=O)[C@H](C(C)C)NC(=O)[C@H](CC(C)C)NC(=O)[C@H](CCC(=O)O)NC(=O)CNC1=O)C(=O)N[C@@H]([C@@H](C)O)C(=O)N1CCC[C@@H]1C(=O)N1C[C@@H](NC(=O)CCN3CCN(CC(=O)NC[C@H]4OC[C@H](Nc5cncc(C(F)(F)F)n5)[C@@H](O)[C@H]4O)CC3)C[C@H]1C(=O)N[C@@H](CC(=O)O)C(=O)N2 [Compound 63]				
